Patent publication US20240024266A1, “Therapeutic Agent or Prophylactic Agent for COVID-19” (priority 2020, published 2024)
Read-outs that look alike come from different tables or passages of the source.

System: SARS-CoV-2
Experiment: Confirmation test of suppressing effect against SARS-CoV-2 proliferation (nucleocapsid Western blotting, VeroE6/TMPRSS2 cells)
Assay type: cell-based
Details: for inhibition at 20 µM: Severe acute respiratory syndrome coronavirus 2, VeroE6/TMPRSS2, 8 h, read-out: Inhibition Rate
[1] = 20 μM Pin1 inhibitor, VeroE6/TMPRSS2 cells, MOI 10, cell lysate 8 hours after infection, nucleocapsid band area vs no inhibitor

Compound	inhibition at 20 µM [1]	also measured
O=C(Nc1ccc(OCc2ccc3ccccc3c2)cc1C(=O)O)c1ccc2ccccc2c1 [H-371]		Inhibition Rate [1]: 99%
O=C(O)CC(Cc1ccc2ccccc2c1)OC(=O)c1ccc2ccccc2c1 (stereo not drawn) [H-514]	99%	
CC(C)(C)OC(=O)Nc1cc(NC(=O)n2c3ccccc3c3ccccc32)cc(C(=O)O)c1 [H-678]	87%	
O=C(O)/C(=C/c1ccc2ccccc2c1)CC(=O)N1CCc2ccccc2C1 [H-742]	57%	
COC(=O)[C@H](CCCNC(=O)c1cccnc1)NC(=O)n1c2ccccc2c2ccccc21 [H-707]	55%	
COC(=O)c1cc(NC(C)=O)cc(NC(=O)n2c3ccccc3c3ccccc32)c1 [H-696-2]	98%	
O=C(C/C(=C\c1ccc2ccccc2c1)C(=O)O)NC1c2ccccc2-c2ccccc21 [H-644]	95%	
O=C(O[C@H](Cc1cccc2ccccc12)C(=O)O)c1ccc2ccccc2c1 [H-438]	99%	
Cc1cc(C)cc(C(=O)O[C@H](Cc2ccc3ccccc3c2)C(=O)O)c1 [H-210]	99%	
O=C(O[C@H](Cc1ccc2ccccc2c1)C(=O)O)c1cc(Cl)cc(Cl)c1 [H-200]	98%	
COC(=O)c1cc(NC(=O)c2ccc3ccccc3n2)cc(NC(=O)n2c3ccccc3c3ccccc32)c1 [H-684]	66%	
COP(=O)(OC)OCC(COc1cccc2ccccc12)OCc1ccc2ccccc2c1 (stereo not drawn) [H-546]		inhibition at 20 µM: 83%
COC(=O)c1cc(NC(=O)CC2c3ccccc3-c3ccccc32)cc(NC(=O)c2ccc3c(c2)OCCO3)c1 [H-859]	89%	
O=C(O[C@H](Cc1ccc2ccccc2c1)C(=O)O)c1cccc2ccccc12 [H-452]	52%	
O=C(O[C@H](Cc1ccc2ccccc2c1)C(=O)O)c1ccccc1Oc1ccccc1 [H-132]	99%	
COC(=O)c1cc(NC(=O)c2ccc(CN(C)C)cc2)cc(NC(=O)n2c3ccccc3c3ccccc32)c1 [H-890]	54%	
Nc1cc(NC(=O)C2c3ccccc3-c3ccccc32)cc(C(=O)OCc2ccccc2)c1 [H-755-2]		Inhibition Rate [1]: 75%

Compound	inhibition at 20 µM [1]	also measured
COC(=O)[C@@H](Cc1ccc2ccccc2c1)NC(=O)n1c2ccccc2c2ccccc21 [H-393]	80%	
O=C(N[C@H](Cc1ccc2ccccc2c1)C(=O)OCc1ccccc1)C1c2ccccc2-c2ccccc21 [H-105]	100%	
O=C(CN(c1ccccc1)c1ccccc1)Nc1cc(NC(=O)c2ccc3ccccc3c2)cc(C(=O)O)c1 [H-819]	95%	
O=C(O)[C@@H](Cc1cccc2ccccc12)NC(=O)n1c2ccccc2c2ccccc21 [H-509]	98%	
O=C(CN(c1ccccc1)c1ccccc1)Nc1cc(NC(=O)c2ccc3ccccc3n2)cc(C(=O)O)c1 [H-821]	95%	
COC(=O)c1cc(N)cc(NC(=O)N(c2ccccc2)c2ccccc2)c1 [H-725-2]	81%	
O=C(CC(Cc1ccc2c(c1)OCO2)C(=O)O)Nc1cccc2ccccc12 (stereo not drawn) [H-674]	50%	
COC(=O)c1cc(NC(=O)OC(C)(C)C)cc(NC(=O)n2ccc3ccccc32)c1 [H-872]	78%	
O=C(CC1c2ccccc2-c2ccccc21)N[C@H](Cc1ccc2ccccc2c1)C(=O)O [H-103]	100%	
COC(=O)c1cc(OCc2ccncc2)ccc1NC(=O)c1cccnc1 [H-832]	65%	
O=C(N[C@H](Cc1c[nH]c2ccccc12)C(=O)O)OCC1c2ccccc2-c2ccccc21 [H-95]	95%	
COC(=O)[C@@H](Cc1ccc2ccccc2c1)NC(=O)c1ccc(CNC(=O)OC(C)(C)C)cc1 [H-848]	53%	
CC(C)(C)OC(=O)NCc1ccc(C(=O)N[C@H](Cc2ccc3ccccc3c2)C(=O)O)cc1 [H-849]	50%	
COc1ccc(-c2cc(C(=O)O[C@H](Cc3ccc4ccccc4c3)C(=O)O)c(C)o2)cc1 [H-32]	86%	
COc1ccc2cc(CC(OC(=O)c3ccc4ccccc4c3)C(=O)O)ccc2c1 (stereo not drawn) [H-512]	90%	
O=C(O)c1cc(OCc2ccc3ccccc3c2)c(C(=O)O)cc1OCc1ccc2ccccc2c1 [H-444]	55%	
